The text below walks through data of patent publication US6054441A, “Oxypurine nucleosides and their congeners, and acyl derivatives thereof, for improvement of hematopoiesis” (priority 1995, dated 2000).

Assay [1] relates to hematopoietic recovery after cyclophosphamide. The assay is described as follows: Hematopoietic recovery after cyclophosphamide (Example 50). It is filed as in vivo, Balb/C mice. The settings on record: 2 μmoles/mouse. Here is the method: Cyclophosphamide (CP) (275 mg/kg, i.p.) was administered to 96 Balb/C female mice weighing approximately 20 grams each. Twenty-four hours later and each day thereafter mice were given a 0.4 ml i.p. injection of either Tween-80 (0.2%) (controls), palmitoyldeoxyguanosine (2 μmoles/mouse), palmitoyldeoxyinosine (2 μmoles/mouse), palmitoylacyclovir (2 μmoles/mouse), palmitoylarabinosylguanine (2 μmoles/mouse), palmitoylarabinosylhypoxanthine (2 μmoles/mouse), monopalmitoylguanosine 2',3'-acyclic dialcohol (2 μmoles/mouse), and palmitoyl-8-thioguanosine (2 μmoles/mouse). On days 5 and 7 following CP administration 6 animals in each of the 8 groups were bled and then sacrificed by cervical dislocation. Spleens were removed and weighed, and complete blood cell counts performed.

In assay [2] the test system is blood cell counts after cyclophosphamide. As to the kind of experiment: Hematopoietic recovery after cyclophosphamide (Example 62). It is filed as in vivo, Balb/C mice. The conditions noted are these: for Spleen: 25 mg/kg TriPdG or molar equivalent. How it is done:
Thirty-six female Balb/C mice weighing approximately 20 grams each received a 0.4 ml i.p. injection of either 3',5'-O-N^2 -tripalmitoyl-2'-deoxyguanosine (triPdG) at a dose of 25 mg/kg/treatment or 3',5'-O-dipalmitoyl-2'-deoxyguanosine (diPdG) at a dose that was the molar equivalent of 25 mg/kg tripalmitoylgdeoxyguanosine, in a Tween-DMSO vehicle (0.2% Tween-80 and 7.5% DMSO in saline) or vehicle alone one time daily for five days following a single injection of cyclophosphamide (CP) (250 mg/kg, i.p.). On days 5 and 7 following CP administration six animals from each of these three groups were bled and then sacrificed by cervical dislocation. Six untreated mice were also bled and sacrificed to provide data on normal. (basal) values. Spleens were removed and weighed, and complete blood cell counts performed.

Assay [3] has the same test system. The assay is described as follows: Hematopoietic recovery after cyclophosphamide (Example 63). It is filed as in vivo, Balb-C mice. The settings on record: for Spleen: 25 mg/kg TriPdG or molar equivalent. Here is the method:
Fifty-eight female Balb-C mice weighing approximately 20 grams each received a single injection of cyclophosphamide (250 mg/kg, i.p.), and were then distributed into a vehicle control group (0.2% Tween-80+7.5% DMSO in saline; n=12) or one of five treatment groups:
Vehicle or treatment agents were administered to mice once daily for five days at a volume of 0.4 ml by i.p. injection. TriPdG was given at a dose of 25 mg/kg/treatment. The other four agents were given in doses that are the molar equivalent of 25 mg/kg/treatment of TriPdG. On days 5 and 7 following CP administration half of the animals from each of the six groups were bled and then sacrificed by cervical dislocation. Five untreated mice were also bled and sacrificed to provide data on normal (basal) values. Spleens were removed and weighed, and complete blood cell counts performed.

For assay [4], the system named is blood cell counts after 5-fluorouracil. The assay is described as follows: Pretreatment dose response, recovery after 5-fluorouracil (Example 65). It is filed as in vivo, Balb/C mice. How it is done: Sixty female Balb/C mice weighing approximately 20 grams each were distributed into one of five treatment groups and treated once daily for three days by i.p. injection with 3',5'-O-N^2 -tripalmitoyl-2'-deoxyguanosine at a dose of either 1, 5, 10, 25, or 50 mg/kg/treatment in a Tween-DMSO vehicle (0.2% Tween-80 and 7.5% DMSO in physiological saline). Injection volume was 0.4 ml. An additional twelve animals (controls) received vehicle alone on those three days. On the fourth day all seventy-two animals received a single i.p. injection of 5-fluorouracil (5-FU) at a dose of 150 mg/kg. On days 7 and 10 following 5-FU administration six mice from each group were bled and then sacrificed by cervical dislocation. Six untreated mice were also bled and sacrificed to provide data on normal (basal) values. Spleens were removed and weighed, and complete blood cell counts performed.

The next assay has as its system bone marrow cells. As to the kind of experiment: Proliferation of bone marrow cells in long-term culture (Example 68). It is filed as cell-based, B6D2F1 mice. The settings on record: 10 micrograms per ml. Here is the method: Bone marrow cells from the femurs of B6D2F1 mice were used to establish long-term marrow cultures. After four weeks, when the stromal layer was confluent, the culture was treated with microphenolic acid in order to remove all cells from the stroma. New normal bone marrow cells (1×10^5 /ml) from the same source were then used to "recharge" the stromal layer. Palmitoyldeoxyguanosine was added to half of the cultures at a concentration of 10 micrograms per ml. Cells were counted on days 1, 3, 5, and 7 following addition of palmitoyldeoxyguanosine. On days 4 and 7 cells from the culture were removed, washed, and replated in methylcellulose. The number of granulo-monocytic colonies was counted one week later.

The next assay has as its system FDCPmix cells. As to the kind of experiment: Proliferation of FDCPmix cells, MTT assay (Example 69). It is filed as cell-based. How it is done:
The FDCPmix cell line was used as a suitable in vitro model for predicting the effects of hematopoietic factors on pluripotential stem cells. These cells can be maintained in an-undifferentiated state in the presence of IL-3 or undergo multi-lineage development in the presence of specific hematopoietic growth factors.
This level of proliferation (100%) served as the control value. Inhibition of proliferation by test compounds was represented as a percent of control.
FDCPmix cells were plated at a density of 5×10^4 cells per well in 96-well plates (5×10^5 /ml) using IMDM medium plus 10% fetal bovine serum. […] Test compounds were added at a decreasing concentrations ranging from 10 micrograms/ml down to 1 nanogram/ml. The test compounds included: 3',5'-O-N^2 -tripalmitoyl-2'-deoxyguanosine, 3',5'-di-O-palmitoyl-2'-deoxyguanosine, 3',5'-O-N^2 -trioctanoyl-2'-deoxyguanosine, 3',5'-di-O-octanoyl-2'-deoxyguanosine, and 3',5'-O-N^2 -trioleyl-2'-deoxyguanosine.
For orientation: Tetrazolium assays rely on reduction of a dye to a coloured formazan, in cell work by metabolically active cells.

Assay [5] relates to hematopoiesis in normal mice. The assay is described as follows: Hematopoiesis in normal mice (Example 56). It is filed as in vivo, Balb/C mice. The settings on record: day 5, 2.6 μmoles/mouse, 4 days. Here is the method: Normal Balb/C female mice weighing approximately 20 grams each were given a daily 0.4 ml i.p. injection of either physiological saline (controls), palmitoylguanosine (2.6 μmoles/mouse), palmitoyldeoxyguanosine (2.6 μmoles/mouse), monopalmitoylguanosine 2',3'-acyclic dialcohol (2.6 μmoles/mouse), and palmitoyl-8-bromoguanosine (2.6 μmoles/mouse) for 4 days. On the fifth day all 3 animals in each of the 5 groups were bled and then sacrificed by cervical dislocation. Spleens were removed and weighed, and complete blood cell counts performed. Femoral bone marrow from each mouse was collected and a differential cell count performed on marrow smears.

[6] abbreviates: 48 h, read-out: Cell proliferation.

For the compound `CCCCCCCCCCCCCCCC(=O)OCCOCn1cnc2c(=O)[nH]c(N)nc21` [1-O-palmitoylacyclovir, palmitoylacyclovir], the “white blood cell count” value in assay [1] (day 5) is listed as “significantly elevated compared to controls in all but one treatment group (1-O-palmitoylacyclovir)”.
Turning to `CCCCCCCCCCCCCCCC(=O)Nc1nc2c(ncn2[C@H]2C[C@H](OC(=O)CCCCCCCCCCCCCCC)[C@@H](COC(=O)CCCCCCCCCCCCCCC)O2)c(=O)[nH]1` [TriPdG, 3',5'-O-N^2-tripalmitoyl-2'-deoxyguanosine], the Neutrophils is given as 2.5 ± .3 K/μl in assay [2] (5 days after CP); 9.9 ± .9 K/μl in assay [2] (7 days after CP); 0.6 ± .1 K/μl in assay [3] (5 days after CP); 7.3 ± .3 K/μl in assay [3] (7 days after CP); 0.4 ± .2 K/μl in assay [4] (10 days after 5-FU, 1 mg/kg); 1.6 ± .4 K/μl in assay [4] (10 days after 5-FU, 5 mg/kg). Besides, the Neutrophils is 1.8 ± .4 K/μl in assay [4] (10 days after 5-FU, 10 mg/kg); 2.9 ± .4 K/μl in assay [4] (10 days after 5-FU, 25 mg/kg); 2.2 ± .5 K/μl in assay [4] (10 days after 5-FU, 50 mg/kg). The WBC was 4.1 ± .4 K/μl in assay [2] (5 days after CP); 13.4 ± .4 K/μl in assay [2] (7 days after CP); 3.6 ± .4 K/μl in assay [3] (5 days after CP); 3.6 ± .4 K/μl in assay [3] (7 days after CP); 6.2 ± .4 K/μl in assay [4] (10 days after 5-FU, 1 mg/kg); 8.2 ± .9 K/μl in assay [4] (10 days after 5-FU, 5 mg/kg). Moreover, the WBC is listed as 7.7 ± .6 K/μl in assay [4] (10 days after 5-FU, 10 mg/kg); 11.4 ± .6 K/μl in assay [4] (10 days after 5-FU, 25 mg/kg); 10.8 ± 1.6 K/μl in assay [4] (10 days after 5-FU, 50 mg/kg). Moreover, the Spleen in assay [2] (5 days after CP) was found to be 77 ± 7 mg; in assay [2] (7 days after CP) it was 156 ± 12 mg; in assay [3] (5 days after CP), 73 ± 3 mg; in assay [3] (7 days after CP), 198 ± 23 mg; in assay [4] (7 days after 5-FU, 1 mg/kg), 74 ± 3 mg; in assay [4] (7 days after 5-FU, 5 mg/kg), 78 ± 4 mg. Further, the Spleen was 83 ± 6 mg in assay [4] (7 days after 5-FU, 10 mg/kg); 93 ± 5 mg in assay [4] (7 days after 5-FU, 25 mg/kg); 102 ± 4 mg in assay [4] (7 days after 5-FU, 50 mg/kg); 96 ± 13 mg in assay [4] (10 days after 5-FU, 1 mg/kg); 157 ± 13 mg in assay [4] (10 days after 5-FU, 5 mg/kg); 169 ± 24 mg in assay [4] (10 days after 5-FU, 10 mg/kg). Further, the Spleen in assay [4] (10 days after 5-FU, 25 mg/kg) is reported as 293 ± 17 mg; in assay [4] (10 days after 5-FU, 50 mg/kg) it was 320 ± 39 mg. Moreover, the Platelets in assay [2] (7 days after CP) was 549 ± 25 K/μl; in assay [3] (5 days after CP) it was 330 ± 19 K/μl; in assay [3] (7 days after CP), 674 ± 37 K/μl; in assay [4] (7 days after 5-FU, 1 mg/kg), 457 ± 36 K/μl; in assay [4] (7 days after 5-FU, 5 mg/kg), 682 ± 66 K/μl; in assay [4] (7 days after 5-FU, 10 mg/kg) it was 571 ± 41 K/μl. For the same compound, the Platelets in assay [4] (7 days after 5-FU, 25 mg/kg) worked out at 587 ± 19 K/μl; in assay [4] (7 days after 5-FU, 50 mg/kg), 596 ± 43 K/μl. Further, the Lymphocytes in assay [4] (10 days after 5-FU, 1 mg/kg) was 5.7 ± .2 K/μl; in assay [4] (10 days after 5-FU, 5 mg/kg) it was 6.3 ± .7 K/μl; in assay [4] (10 days after 5-FU, 10 mg/kg), 5.7 ± .4 K/μl; in assay [4] (10 days after 5-FU, 25 mg/kg), 8.3 ± .4 K/μl; in assay [4] (10 days after 5-FU, 50 mg/kg), 8.3 ± 1.0 K/μl. The Cells was 1.9 ± .13 10^6 /flask in the assay with bone marrow cells (day 1), 2.9 ± .10 10^6 /flask with bone marrow cells (day 3), 7.7 ± .2 10^6 /flask with bone marrow cells (day 5) and 4.3 ± .15 10^6 /flask in the assay on bone marrow cells (day 7). Moreover, the granulocyte/macrophage colony-forming units came out at 5123 ± 561 CFU-GM/flask in the assay on bone marrow cells (day 4) and 33903 ± 9457 CFU-GM/flask in the assay on bone marrow cells (day 7). Also, the inhibition of proliferation result with FDCPmix cells (10 micrograms/ml down) is on record as “significant dose-dependent inhibitory effects at doses from 10 micrograms per ml down to 100 nanograms per ml”. In addition, the activity at 0.01 µg/mL in the assay on FDCPmix cells (setting [6]) stood at 78 ± 1%. Moreover, the activity at 0.039 µg/mL with FDCPmix cells (setting [6]) was determined as 76 ± 2%. For the same compound, the activity at 0.156 µg/mL in the assay with FDCPmix cells (setting [6]) turned out to be 72 ± 3%. Moreover, the activity at 0.625 µg/mL in the assay with FDCPmix cells (setting [6]) turned out to be 60 ± 2%. In addition, the activity at 2.5 µg/mL in the assay on FDCPmix cells (setting [6]) came out at 51 ± 0.7%. Besides, the activity at 10 µg/mL in the assay on FDCPmix cells (setting [6]) was 51 ± 0.6%.
For the compound “Palmitoylguanosine 2,3'-acyclic dialcohol”, the spleen weight result in assay [1] (day 5) is reported as “significantly elevated”. Moreover, in assay [5], the platelet counts result is given as “significantly elevated in the all of the treatment groups except palmitoylguanosine 2',3'-acyclic dialcohol” and the spleen weight entry is “significantly elevated”. Moreover, the number of myelocytes entry in assay [5] (femoral bone marrow) is reported as “significantly greater”.
As for palmitoylarabinosylguanine, the spleen weight entry in assay [1] (day 7) is “significantly elevated on day 7 in all treatment groups except palmitoylarabinosylguanine”.
Same read-out and setting: to palmitoylarabinosylhypoxanthine belongs “significantly elevated on day 7 in all treatment groups except palmitoylarabinosylguanine and palmitoylarabinosylhypoxanthine”.
